Data from publication PMC10220492, “Investigating the mechanism of photoisomerization in jellyfish rhodopsin with the counterion at an atypical position” (The Journal of Biological Chemistry, 2023).

Target: T1, JelRh (box jellyfish rhodopsin) (Carybdea rastonii, UniProt B6F0Y5)
T1 construct: gene cubop; opsin gene in pFastBac HT vector with C-terminal rho 1D4 tag (TETSQVAPA), Sf9 baculovirus expression, DDM-solubilized, 1D4-purified, wild type reconstituted in PC liposomes
T1 sequence (B6F0Y5 1-330): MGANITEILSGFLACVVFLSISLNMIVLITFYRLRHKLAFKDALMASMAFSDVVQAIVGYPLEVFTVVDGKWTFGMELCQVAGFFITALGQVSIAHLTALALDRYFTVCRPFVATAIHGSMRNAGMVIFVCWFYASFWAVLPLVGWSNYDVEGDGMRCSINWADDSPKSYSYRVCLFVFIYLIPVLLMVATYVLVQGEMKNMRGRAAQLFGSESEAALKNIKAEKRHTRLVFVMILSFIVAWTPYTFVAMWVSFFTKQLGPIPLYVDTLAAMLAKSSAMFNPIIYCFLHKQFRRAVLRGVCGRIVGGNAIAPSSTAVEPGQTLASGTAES
Assay: low-temperature UV-visible and FTIR difference spectroscopy of reconstituted pigment
Format: binding
Conditions: 77 K

CC1=C(/C=C/C(C)=C/C=C\C(C)=C\C=O)C(C)(C)CCC1 [11-cis-retinal]
low-temperature UV-visible and FTIR difference spectroscopy of reconstituted pig (covalent (protonated Schiff base), PC liposomes, hydrated film, 11-cis-retinal added at 30 uM to membranes): The sample after membrane preparation was reconstituted with 11-cis-retinal overnight

CC1=C(/C=C/C(C)=C/C=C/C(C)=C/C=O)C(C)(C)CCC1 [all-trans-retinal]
low-temperature UV-visible and FTIR difference spectroscopy of reconstituted pig (covalent (Schiff base), all-trans bound Batho intermediate made in situ by 500 nm illumination): the isomerization from 11-cis to all-trans retinal in JelRh is similar to that of BovRh

CC1=C(/C=C/C(C)=C\C=C\C(C)=C\C=O)C(C)(C)CCC1 [9-cis-retinal]
low-temperature UV-visible and FTIR difference spectroscopy of reconstituted pig (covalent (protonated Schiff base), 9-cis bound form (Iso-JelRh) made in situ by >520 nm illumination of Batho): confirming the formation of the 9-cis bound form (so-called Iso-rhodopsin or Iso)
